Assay results taken from BindingDB's records for doi:10.1111/j.1747-0285.2007.00608.x (National Institute of Pharmaceutical Education and Research, 2008).

Target: T1, UDP-3-O-acyl-N-acetylglucosamine deacetylase (Pseudomonas aeruginosa (strain ATCC 15692 / DSM 22644 / CIP 104116 / JCM 14847 / LMG 12228 / 1C / PRS 101 / PAO1), UniProt P47205)
T1 sequence (P47205 whole entry): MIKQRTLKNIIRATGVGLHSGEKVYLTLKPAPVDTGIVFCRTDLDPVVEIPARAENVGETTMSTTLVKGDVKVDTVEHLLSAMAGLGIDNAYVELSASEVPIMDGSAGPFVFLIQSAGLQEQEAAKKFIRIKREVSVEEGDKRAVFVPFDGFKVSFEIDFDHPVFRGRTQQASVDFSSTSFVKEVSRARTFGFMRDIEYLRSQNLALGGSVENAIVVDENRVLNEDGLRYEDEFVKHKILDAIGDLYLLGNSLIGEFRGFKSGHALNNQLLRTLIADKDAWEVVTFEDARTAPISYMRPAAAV
Assay: Inhibition Assay
Text: The LpxC inhibitors were used as the reference for development of flexible alignment-based pharamcophore, pharamcophore mapping study.

| IC50 | Structure (SMILES) |
| --- | --- |
| > 30 µM | O=C(NO)[C@@H]1COC(c2ccc(O)cc2)=N1 [LpxC Inhibitor, L17] |
| 13 µM | O=C(N[C@@H](CO)C(=O)NO)c1n[nH]c2ccccc12 [LpxC Inhibitor, L5] |
| 5.5 µM | O=C(NO)[C@H]1COC(c2n[nH]c3ccccc23)=N1 [LpxC Inhibitor, L9] |
| 2.2 µM | C=CCOc1ccc(C2=N[C@@H](C(=O)NO)CO2)cc1C(F)(F)F [LpxC Inhibitor, L4] |
| 17.8 µM | CCCc1cc(C2=N[C@H](C(=O)NO)CS2)cc(OC(F)(F)F)c1OC [LpxC Inhibitor, L14] |
| 38.5 µM | Cc1ccc(C2=N[C@H](C(=O)NO)CS2)cc1 [LpxC Inhibitor, L18] |
| 0.16 µM | COc1ccc(C2=N[C@H](C(=O)NO)CO2)cc1OC(F)(F)F [LpxC Inhibitor, L15] |
| > 50 µM | CCCc1cc(C(=O)N[C@@H](CO)C(=O)NO)cc(OC(C)(C)C)c1OC [LpxC Inhibitor, L13] |
| 1.2 µM | Cc1cc(C2=N[C@@H](C(=O)NO)CO2)ccc1F [LpxC Inhibitor, L3] |
| 0.56 µM | O=C(NO)[C@H]1COC(c2ccc(COc3cccc([N+](=O)[O-])c3)cc2)=N1 [LpxC Inhibitor, L2] |
| 10 µM | CCCCn1nc(C2=N[C@@H](C(=O)NO)CO2)c2ccccc21 [LpxC Inhibitor, L11] |
| 0.25 µM | O=C(NO)[C@H]1COC(c2ccc(OCc3cccc(F)c3)c(C(F)(F)F)c2)=N1 [LpxC Inhibitor, L6] |
| 0.5 µM | CCCc1cc(C2=N[C@@H](C(=O)NO)CO2)cc(OC(F)(F)F)c1OC [LpxC Inhibitor, L1] |
| 1 µM | O=C(NO)[C@@H]1COC(c2ccc(OCc3cccc([N+](=O)[O-])c3)cc2)=N1 [LpxC Inhibitor, L16] |
| 1 µM | CCOc1cc(C2=N[C@@H](C(=O)NO)CO2)ccc1F [LpxC Inhibitor, L10] |
| 12 µM | CCCCn1nc2ccccc2c1C1=N[C@@H](C(=O)NO)CO1 [LpxC Inhibitor, L12] |
| 4.9 µM | CN(C)c1ccc(C2=N[C@@H](C(=O)NO)CO2)cc1 [CS273] |
| 25 µM | O=C(NO)[C@H]1COC(c2cc(F)cc(C(F)(F)F)c2)=N1 [LpxC Inhibitor, L7] |
